Results published in patent US11136297B2, “Compositions and methods for treating cancer” (THE REGENTS OF THE UNIVERSITY OF CALIFORNIA, priority 2016, dated 2021).

Key:
Format in all cases: binding
[1] = molecular target: T1, H-Ras(M72C) bound to either GDP or GppNHp (Homo sapiens, UniProt P01112, M72C); experiment: Electrophile labeling experiments (percent modification by whole protein LC/MS); details: 4 μM H-Ras(M72C) GDP or GppNHp, 100 μM electrophile, 24 hours
T1 construct: Labeling studies were conducted using the 1-166 H-Ras(M72C) construct containing all endogenous cysteines; His6; made in house; host or cells: Escherichia coli BL21(DE3)
Method: Electrophile Labeling Experiments.
Each reaction was analyzed in a 96 well plate format for analysis by LC/MS. Total reaction volumes were 25 μL for single time point labeling experiments and 200 uL for full 24-hour time courses. 25 μL reactions were made in the wells of a V-bottom 96 well plate and 200 uL reactions were made in 1.25 mL eppendorf tubes. All labeling reactions were conducted in Gel Filtration Buffer (20 mM HEPES (pH 7.5), 150 mM NaCl) with no added reductant at room temperature. […] Electrophile stocks were made in DMSO at 10 mM, aliquoted, and frozen. Labeling reactions were started by the addition of the desired volume of 10 mM electrophile stock and mixed thoroughly by pipette. General screening of new electrophiles was done at 100 μM electrophile in triplicate and sampled as a single time point after 24 hours of incubation. For Compound 3, labeling time courses were conducted at 20 μM compound with sampling done every 2 hours for the first 10 hours of incubation and continued after overnight incubation until the protein was fully modified. Reactions were allowed to sit at room temperature in the dark (either covered in aluminum foil or in a bench drawer) until the desired time point was reached. For 24-hour single point labeling experiments, the reaction was directly sampled from the 96 well plate and analyzed by LC/MS. For experiments with multiple time points, 22.5 μL aliquots of the 200 μL master reaction were sampled and quenched by the addition of 2.5 μL of 2% formic acid (also made in Gel Filtration Buffer). This 25 μL quenched sample was then analyzed by LC/MS and the remaining master reaction was allowed to continue reacting after gentle mixing by pipette. The percent modification was analyzed by electrospray mass spectrometry using a Waters Acquity UPLC/ESI-TQD with a 2.1×50 mm Acquity UPLC BEH300 C4 column.

1-169 K-Ras(M72C) GDP = molecular target: T2, 1-169 K-Ras(M72C) GDP (Homo sapiens, UniProt P01116, M72C); experiment: Disulfide tethering screen, percent modification by intact protein mass spectrometry; details: screening βME 1 mM
T2 construct: Untagged recombinant 1-169 K-Ras(M72C) GDP; His6 (cleaved yes); made in house; host or cells: Escherichia coli BL21(DE3)
Text: In some embodiments, a library of disulfide compounds may be screened against a cysteine-containing protein in the presence of a reducing agent such as β-mercaptoethanol (BME). Compounds with complementary binding contacts with a region of the protein near the cysteine may shift the disulfide exchange equilibrium away from BME modification of the cysteine thiol and enhance the ratio of the hit ligand bound to the cysteine. The resulting mass change of the protein can be readily detected by mass spectrometry, and the percentage of modified protein can be used as a measure of potency. Compounds which exchange with the cysteine without conferring affinity should exchange with reducing agent equally well and will not shift the equilibrium toward protein modification. The potency of various compounds at a given concentration of BME may be compared by calculating the dose-response 50 (DR50), which is the concentration of compound at which the protein becomes 50% modified.
A tethering library of 960 disulfides were screened against 1-169 K-Ras(M72C) GDP using intact protein mass spectrometry to monitor percent modification (See Methods, and FIG. 37). […] To better prioritize tethering fragments, a βME50 value (the concentration of βME needed to reduce disulfide fragment modification to 50%) was determined for each compound. […]

[2] = molecular target: T3, full-length wild-type K-Ras (Homo sapiens, UniProt P01116); experiment: Disulfide fragment labeling of full-length wild-type K-Ras (Cys 72 selectivity); details: wild-type K-Ras contains 4 native cysteine residues
T3 construct: His6; made in house; host or cells: Escherichia coli BL21(DE3)

H-Ras(M72C) GppNHp = H-Ras(M72C) GppNHp (Homo sapiens, UniProt P01112, M72C); experiment: βME50 and percent labeling of tethering fragments, GppNHp state; set-up: Labeling studies were conducted using the 1-166 H-Ras(M72C) construct containing all endogenous cysteines; His6; made in house; host or cells: Escherichia coli BL21(DE3); details: disulfide tethering at Cys 72
Method: FIG. 32. […] Percent labeling against H-Ras(M72C) GDP and GppNHp at the screening βME concentration (1 mM) are graphed.
(§1) A tethering library of 960 disulfides were screened against 1-169 K-Ras(M72C) GDP using intact protein mass spectrometry to monitor percent modification (See Methods, and FIG. 37). […] To better prioritize tethering fragments, a βME50 value (the concentration of βME needed to reduce disulfide fragment modification to 50%) was determined for each compound. A higher βME50 value corresponds to a better fragment as it can bind with increasing concentrations of competitive thiol (Erlanson et al., 2004; Yang et al., 2009).

K-Ras(M72C) GDP = molecular target: T4, K-Ras(M72C) GDP (Homo sapiens, UniProt P01116, M72C); experiment: βME50 determination of tethering fragments; details: relative to 2C07
T4 construct: Untagged recombinant 1-169 K-Ras(M72C) GDP; His6 (cleaved yes); made in house; host or cells: Escherichia coli BL21(DE3)
Method: as §1
We next explored small chemical modifications to 2C07.

T1 sequence (P01112 1-166 M72C): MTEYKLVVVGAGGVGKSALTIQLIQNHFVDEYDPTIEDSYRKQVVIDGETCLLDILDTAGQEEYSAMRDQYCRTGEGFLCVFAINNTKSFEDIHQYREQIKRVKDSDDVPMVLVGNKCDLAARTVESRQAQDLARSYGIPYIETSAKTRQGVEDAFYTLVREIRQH
H-Ras(M72C) GppNHp, sequence (P01112 1-166 M72C): as above

**Q.** How did the “Percent modification (labeling of Cys 72)” value [1] turn out when `C=CC(=O)Nc1ccc(NC(=O)c2cnn(-c3ccc(OC)cc3)c2C(F)(F)F)cc1` [Compound 1, N-(4-acrylamidophenyl)-1-(4-methoxyphenyl)-5-(trifluoromethyl)-1H-pyrazole-4-carboxamide] was run?
**A.** no detectable labeling

**Q.** What does the source list for `CN(C)CCSSCCCNC(=O)C(=O)c1c[nH]c2ccccc12` [Compound 2B02, N-(3-((2-(dimethylamino)ethyl)disulfanyl)propyl)-2-(1H-indol-3-yl)-2-oxoacetamide]?
**A.** percent modification (1-169 K-Ras(M72C) GDP): 52.8%; modification of full-length wild-type K-Ras [2]: did not modify; labeling of H-Ras(M72C) GppNHp (H-Ras(M72C) GppNHp): labeled

**Q.** With `COc1ccc(-n2ncc(C(=O)NCCCCSSCCN(C)C)c2C(F)(F)F)cc1` [Compound 2C07b, N-(4-((2-(dimethylamino)ethyl)disulfanyl)butyl)-1-(4-methoxyphenyl)-5-(trifluoromethyl)-1H-pyrazole-4-carboxamide] as the compound, how does the “change in βME50” value (K-Ras(M72C) GDP) read?
**A.** small decrease

**Q.** `COc1ccc(-n2cc(C(=O)NCCCSSCCN(C)C)cn2)cc1` [Compound 2C07c, N-(3-((2-(dimethylamino)ethyl)disulfanyl)propyl)-1-(4-methoxyphenyl)-1H-pyrazole-4-carboxamide] was tested. Which “change in βME50” value (K-Ras(M72C) GDP) did it give?
**A.** drastic decrease
